5 compounds from US20260022142A1, “MACROCYCLIC IMMUNOMODULATORS” (Bristol-Myers Squibb Company, priority 2022, published 2026) can be followed below.

pIC50: −log10 of the molar value. Numbered stars: 1 amine (or outer) side, 2 acyl side, 3 side chain; on linkers, the order of the positions; unused ones are H or OH. Bridge positions count the residues as written; N and C are the ends. Square brackets hold non-standard residues; d marks the D form. Peptide text beside a SMILES is read from it. * marks the point of attachment. ξ: configuration not given here. Phe(3-CF3) = N[C@@H](Cc1cccc(C(F)(F)F)c1)C(=O)O; Ala(morpholin-4-yl) = N[C@@H](CN1CCOCC1)C(=O)O; Phe(4-CONH2) = NC(=O)c1ccc(C[C@H](N)C(=O)O)cc1; Phe(4-COOH) = N[C@@H](Cc1ccc(C(=O)O)cc1)C(=O)O; Bip = N[C@@H](Cc1ccc(-c2ccccc2)cc1)C(=O)O; Phe(3-Me) = Cc1cccc(C[C@H](N)C(=O)O)c1; βAsp = O=C(O)[C@H](CC(=O)[*:2])N[*:1]; NH(CH2)12COOH = O=C(O)CCCCCCCCCCCCN*; Val(3-OH) = CC(C)(O)[C@H](N)C(=O)O; Cha = N[C@@H](CC1CCCCC1)C(=O)O; Cit = NC(=O)NCCC[C@H](N)C(=O)O; Thr(3ξ) = CC(O)[C@H](N)C(=O)O; dDab = NCC[C@@H](N)C(=O)O; Carboxymethyl = O=C(O)C*; Orn = NCCC[C@H](N)C(=O)O; Pra = C#CC[C@H](N)C(=O)O; Aun = NCCCCCCCCCCC(=O)O; Dab = NCC[C@H](N)C(=O)O; Dap = NC[C@H](N)C(=O)O; AEEA = NCCOCCOCC(=O)O

T1 sequence (Q15116 25-288): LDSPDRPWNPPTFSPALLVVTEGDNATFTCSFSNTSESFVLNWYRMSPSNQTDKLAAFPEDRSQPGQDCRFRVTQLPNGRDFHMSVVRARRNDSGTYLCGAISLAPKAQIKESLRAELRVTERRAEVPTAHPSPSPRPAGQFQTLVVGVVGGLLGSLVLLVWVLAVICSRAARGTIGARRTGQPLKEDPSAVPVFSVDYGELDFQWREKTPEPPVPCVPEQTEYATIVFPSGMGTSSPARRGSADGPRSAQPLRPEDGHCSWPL

The assay concerns the target T1, PD-1/PD-L1 interaction (PE-labeled human PD-L1-Ig binding to Jurkat cell line over-expressing human PD-1) (Homo sapiens, UniProt Q15116).
T1 construct: expressed in transfected cells; host or cells: Jurkat
Put plainly: Jurkat-PD-1 Cell Binding High-Content Screening Assay (CBA). In kind it is cell-based. As to conditions: Jurkat cell line over-expressing human PD-1; PE-labeled PD-L1-Ig 20 nM final; read-out: Jurkat hPD1-PDL1 IC50. The gist of the method: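 Read-out is high-content imaging of cell-bound phycoerythrin-tagged PD-L1-Ig on fixed, Hoechst-counterstained Jurkat cells that over-express human PD-1. Compound exposure lasts 2 h at 37° C before the labeled ligand (20 nM final) is added for a further hour.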
Take `C#CC[C@H](NC(=O)[C@H](CCN)NC(=O)[C@@H]1CSCC(=O)N[C@@H](CN2CCOCC2)C(=O)N[C@@H](Cc2ccc(OCC(=O)O)cc2)C(=O)N[C@@H](CC(=O)O)C(=O)N[C@@H](Cc2cccc(C)c2)C(=O)N[C@@H](Cc2ccc(C(=O)O)cc2)C(=O)N[C@@H](Cc2ccc(-c3ccccc3)cc2)C(=O)N[C@@H](Cc2ccc(C(=O)O)cc2)C(=O)N[C@@H](CCCN)C(=O)N[C@H](CC(C)C)C(=O)N[C@@H](CCN)C(=O)N[C@@H](CC2CCCCC2)C(=O)N[C@@H](C(C)(C)O)C(=O)N[C@@H](CO)C(=O)N1)C(=O)NCCCCCCCCCCC(=O)O` [Compound 1286] ({CH2CO}-[Ala(morpholin-4-yl)]Y(Carboxymethyl)D[Phe(3-Me)][Phe(4-COOH)][Bip][Phe(4-COOH)][Orn][dL][Dab][Cha][Val(3-OH)]SC[Dab][Pra][Aun]-OH; thioether N-14): the pIC50 is 8.25. Take `Cc1cccc(C[C@@H]2NC(=O)[C@H](CC(=O)O)NC(=O)[C@H](Cc3ccc(OCC(=O)O)cc3)NC(=O)[C@H](CN)NC(=O)CSC[C@@H](C(=O)N[C@@H](C)C(=O)N[C@@H](CC(=O)NCCOCCOCC(=O)NCCCCCCCCCCC(=O)O)C(=O)O)NC(=O)[C@H]([C@@H](C)O)NC(=O)[C@H](C(C)C)NC(=O)[C@H](CC3CCCCC3)NC(=O)[C@H](CCN)NC(=O)[C@@H](CC(C)C)NC(=O)[C@H](CCCN)NC(=O)[C@H](CCCNC(N)=O)NC(=O)[C@H](Cc3ccc(-c4ccccc4)cc3)NC(=O)[C@H](C(C)C)NC2=O)c1` [Compound 1010] ({CH2CO}-[Dap]Y(Carboxymethyl)D[Phe(3-Me)]V[Bip][Cit][Orn][dL][Dab][Cha]VTCA[βAsp][AEEA][Aun]-OH; thioether N-14): the pIC50 is 8.20. With `CC(C)C[C@H]1NC(=O)[C@H](CCCN)NC(=O)[C@H](C(C)C)NC(=O)[C@H](Cc2ccc(-c3ccccc3)cc2)NC(=O)[C@H](C(C)C)NC(=O)[C@H](Cc2c[nH]c3ccccc23)NC(=O)[C@H](CC(=O)O)NC(=O)[C@H](Cc2ccc(OCC(=O)O)cc2)NC(=O)[C@H](Cc2ccc(OCC(=O)O)cc2)NC(=O)CSC[C@@H](C(=O)NCCCCCCCCCCC(=O)O)NC(=O)[C@H](CCCN)NC(=O)[C@H](C(C)C)NC(=O)[C@H](CC2CCCCC2)NC(=O)[C@H](CCN)NC1=O` [Compound 2607] ({CH2CO}-Y(Carboxymethyl)Y(Carboxymethyl)DWV[Bip]V[Orn][dL][Dab][Cha]V[Orn]C[Aun]-OH; thioether N-14), the pIC50 was 7.53. In the case of `CC(C)C[C@H]1NC(=O)[C@H](CCCN)NC(=O)[C@H](Cc2ccc(C(=O)O)cc2)NC(=O)[C@H](Cc2ccc(-c3ccccc3)cc2)NC(=O)[C@H](Cc2ccc(C(=O)O)cc2)NC(=O)[C@H](Cc2cccc(C(F)(F)F)c2)NC(=O)[C@H](CC(=O)O)NC(=O)[C@H](Cc2ccc(OCC(=O)O)cc2)NC(=O)[C@H](CN2CCOCC2)NC(=O)CSC[C@@H](C(=O)N[C@H](CCN)C(=O)NCCOCCOCC(=O)NCCOCCOCC(=O)NCCCCCCCCCCCCC(=O)O)NC(=O)[C@H](CO)NC(=O)[C@H](C(C)(C)O)NC(=O)[C@H](CC2CCCCC2)NC(=O)[C@H](CCN)NC1=O` [Compound 3828] ({CH2CO}-[Ala(morpholin-4-yl)]Y(Carboxymethyl)D[Phe(3-CF3)][Phe(4-COOH)][Bip][Phe(4-COOH)][Orn][dL][Dab][Cha][Val(3-OH)]SC[dDab][AEEA][AEEA]-{NH(CH2)12COOH}; thioether N-14), the pIC50 was 6.66. The value for `Cc1cccc(C[C@@H]2NC(=O)[C@H](CC(=O)O)NC(=O)[C@H](Cc3ccc(OCC(=O)O)cc3)NC(=O)[C@H](C(C)O)NC(=O)CSC[C@@H](C(=O)N[C@@H](CCN)C(=O)NCCCCCCCCCCC(=O)O)NC(=O)[C@H](CO)NC(=O)[C@H](C(C)(C)O)NC(=O)[C@H](CC3CCCCC3)NC(=O)[C@H](CCN)NC(=O)[C@@H](CC(C)C)NC(=O)[C@H](CCCN)NC(=O)[C@H](Cc3ccc(O)cc3)NC(=O)[C@H](Cc3ccc(-c4ccccc4)cc3)NC(=O)[C@H](Cc3ccc(C(N)=O)cc3)NC2=O)c1` (stereo partly drawn) [Compound 3718] ({CH2CO}-[Thr(3ξ)]Y(Carboxymethyl)D[Phe(3-Me)][Phe(4-CONH2)][Bip]Y[Orn][dL][Dab][Cha][Val(3-OH)]SC[Dab][Aun]-OH; thioether N-14) was 8.06.
